Measurements taken from ChEMBL document CHEMBL2157948, “Design, synthesis, and structure-activity-relationship of phenyl imidazoles as potent Smoothened antagonists” (Bioorg Med Chem Lett, 2012).
In brackets after ≈: the same amount, converted by molar mass.

Experiments:
[1] = Oral bioavailability in mouse; type: ADME, organism-based; conditions: in vivo
[2] = Plasma protein binding in rat; type: ADME, cell-free; conditions: read-out: PPB (converted)
[3] = Aqueous solubility of the compound at pH 7; type: physicochemical
Protein smoothened [4] = molecular target: T1, Protein smoothened (Mus musculus, UniProt P56726); test: Antagonist activity at Smo in mouse TM3 cells expressing Hh12 assessed as inhibition of 25 nM Ag1.5-induced Gli expression incubated for 30 mins prior to Ag1.5-induction measured after 48 hrs by luciferase reporter gene assay; type: functional, cell-based
T1 sequence (P56726 whole entry): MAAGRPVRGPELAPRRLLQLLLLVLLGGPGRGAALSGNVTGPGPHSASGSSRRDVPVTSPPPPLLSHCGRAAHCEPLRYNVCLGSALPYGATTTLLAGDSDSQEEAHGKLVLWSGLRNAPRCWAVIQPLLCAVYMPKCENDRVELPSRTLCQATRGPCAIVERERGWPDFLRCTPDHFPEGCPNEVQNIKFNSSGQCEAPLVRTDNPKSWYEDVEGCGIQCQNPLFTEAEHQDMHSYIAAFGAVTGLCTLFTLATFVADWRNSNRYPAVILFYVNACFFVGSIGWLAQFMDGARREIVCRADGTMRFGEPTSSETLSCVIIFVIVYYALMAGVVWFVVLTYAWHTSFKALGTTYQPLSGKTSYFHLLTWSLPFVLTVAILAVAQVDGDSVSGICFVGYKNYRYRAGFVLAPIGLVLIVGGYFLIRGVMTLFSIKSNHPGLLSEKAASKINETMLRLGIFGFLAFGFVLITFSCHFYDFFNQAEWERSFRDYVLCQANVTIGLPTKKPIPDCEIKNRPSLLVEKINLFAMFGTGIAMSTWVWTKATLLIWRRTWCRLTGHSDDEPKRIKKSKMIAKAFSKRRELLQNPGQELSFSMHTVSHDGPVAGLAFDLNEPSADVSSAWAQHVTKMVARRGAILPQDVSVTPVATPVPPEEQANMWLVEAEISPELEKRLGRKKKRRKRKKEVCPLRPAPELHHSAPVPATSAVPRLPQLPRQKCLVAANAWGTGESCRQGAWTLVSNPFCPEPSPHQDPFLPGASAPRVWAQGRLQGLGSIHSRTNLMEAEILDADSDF

Mus musculus [5] = test: Dose normalised AUC in po dosed mouse; type: ADME, organism-based; conditions: in vivo
[6] = Clearance in mouse; type: ADME, organism-based; conditions: in vivo
[7] = Plasma protein binding in human; type: ADME, cell-free; conditions: read-out: PPB (converted)
Protein smoothened [8] = molecular target: T1, Protein smoothened; test: Antagonist activity at mouse Smo expressed in CHO cells assessed as inhibition of BODIPY-cyclopamine binding after 4 hrs by fluorescence assay; type: cell-based
[9] = Clearance in rat at 3 to 30 mg/kg; type: ADME, organism-based; set-up: dose 3-30 mg/kg; conditions: in vivo
[10] = Volume of distribution at steady state in rat at 3 to 30 mg/kg; type: ADME, organism-based; set-up: dose 3-30 mg/kg; conditions: in vivo, read-out: Vdss
Protein smoothened [11] = molecular target: T1, Protein smoothened; test: Antagonist activity at Smo in mouse TM3 cells expressing Hh12 assessed as inhibition of 1 nM Ag1.5-induced Gli expression incubated for 30 mins prior to Ag1.5-induction measured after 48 hrs by luciferase reporter gene assay; type: functional, cell-based
[12] = Mean residence time in mouse; type: ADME, organism-based; conditions: in vivo
[13] = Permeability of the compound by PAMPA assay; type: ADME
[14] = Oral bioavailability in rat at 3 to 30 mg/kg; type: ADME, organism-based; conditions: in vivo
[15] = Volume of distribution at steady state in mouse; type: ADME, organism-based; conditions: in vivo, read-out: Vdss
[16] = Ratio of drug uptake in brain to plasma in mouse; type: ADME, organism-based; conditions: read-out: BPR
[17] = Mean residence time in rat at 3 to 30 mg/kg; type: ADME, organism-based; set-up: dose 3-30 mg/kg; conditions: in vivo
Mus musculus [18] = test: Clearance in po dosed mouse; type: ADME, organism-based; conditions: in vivo
Protein smoothened [19] = molecular target: Protein smoothened (Homo sapiens, UniProt Q99835); test: Antagonist activity at human Smo expressed in CHO cells assessed as inhibition of BODIPY-cyclopamine binding after 4 hrs by fluorescence assay; type: cell-based
Protein smoothened (Homo sapiens, UniProt Q99835), sequence (Q99835 whole entry): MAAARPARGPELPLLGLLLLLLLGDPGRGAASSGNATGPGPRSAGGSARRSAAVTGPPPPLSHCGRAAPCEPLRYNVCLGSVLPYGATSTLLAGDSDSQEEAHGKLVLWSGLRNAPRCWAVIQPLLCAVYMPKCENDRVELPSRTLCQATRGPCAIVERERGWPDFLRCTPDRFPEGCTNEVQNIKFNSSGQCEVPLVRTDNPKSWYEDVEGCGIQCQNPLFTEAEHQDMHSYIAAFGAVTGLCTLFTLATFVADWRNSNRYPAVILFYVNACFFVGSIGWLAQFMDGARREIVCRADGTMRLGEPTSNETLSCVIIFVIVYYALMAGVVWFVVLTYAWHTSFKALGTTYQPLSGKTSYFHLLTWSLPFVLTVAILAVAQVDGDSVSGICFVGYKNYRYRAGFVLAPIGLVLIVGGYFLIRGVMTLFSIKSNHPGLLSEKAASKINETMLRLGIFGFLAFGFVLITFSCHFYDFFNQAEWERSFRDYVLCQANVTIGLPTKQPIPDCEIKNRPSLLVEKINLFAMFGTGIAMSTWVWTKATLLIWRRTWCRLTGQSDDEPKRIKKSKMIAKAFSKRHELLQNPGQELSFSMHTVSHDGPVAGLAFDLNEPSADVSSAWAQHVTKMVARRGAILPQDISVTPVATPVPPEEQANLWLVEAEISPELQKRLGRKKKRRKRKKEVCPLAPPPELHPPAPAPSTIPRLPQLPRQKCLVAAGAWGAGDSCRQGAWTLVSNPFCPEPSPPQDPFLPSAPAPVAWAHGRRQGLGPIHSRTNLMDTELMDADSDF

[20] = Aqueous solubility of the compound at pH 1; type: physicochemical

`C[C@@H]1CN(c2ccc3c(Nc4ccc(Cl)c(-c5ncc(-c6ccccc6)[nH]5)c4)nccc3n2)CCO1` showed a bioavailability [1] of 82%, a fraction unbound [2] of 0.015 and a solubility [3] of less than 1 µg/mL. The IC50 (Protein smoothened [4]) was 11 nM, the AUC/dose (Mus musculus [5]) was 881 nM·h and the clearance [6] was 32 mL/min/kg. For the same molecule, the fraction unbound [7] was 0.039, the IC50 (Protein smoothened [8]) was 1.6 nM and the clearance [9] was 5 mL/min/kg. It also gave a Vd [10] of 1 L/kg, an IC50 (Protein smoothened [11]) of 0.6 nM and an MRT [12] of 0.56 h. For the same molecule, the permeability [13] was “permeable”, the bioavailability [14] was 53% and the Vd [15] was 1.07 L/kg. The Kp [16] was 0.4, the MRT [17] was 3.33 h and the clearance (Mus musculus [18]) was 32 mL/min/kg. It also gave an IC50 (Protein smoothened [19]) of 4 nM and a solubility [20] of 93 µg/mL (≈ 187 µM).

In the case of `C[C@@H]1CN(c2ccc3c(Nc4ccc(Cl)c(-c5nc(-c6ccccc6)c[nH]5)c4)nccc3n2)C[C@H](C)O1`, the IC50 (Protein smoothened [4]) is reported as 6 nM, the AUC/dose (Mus musculus [5]) is reported as 268 nM·h and the IC50 (Protein smoothened [11]) is reported as 0.2 nM. The clearance (Mus musculus [18]) was 33.1 mL/min/kg.

`C[C@@H]1CN(c2cnc3c(Nc4ccc(Cl)c(-c5nc(-c6ccccc6)c[nH]5)c4)cccc3n2)C[C@H](C)O1` showed an IC50 (Protein smoothened [4]) of 35 nM and an IC50 (Protein smoothened [11]) of 3 nM.

For `C[C@@H]1CN(c2ccc3c(Nc4ccc(Cl)c(-c5ncc(-c6ccccc6)[nH]5)c4)cccc3n2)C[C@H](C)O1`, the IC50 (Protein smoothened [4]) was 5 nM, the AUC/dose (Mus musculus [5]) was 492 nM·h and the IC50 (Protein smoothened [11]) was 0.3 nM.

`C[C@@H]1CN(c2ccc3c(Nc4ccc(Cl)c(-c5nc(-c6ccccc6)c[nH]5)c4)ccnc3c2)C[C@H](C)O1` gave an IC50 (Protein smoothened [4]) of 8 nM, an AUC/dose (Mus musculus [5]) of 0 nM·h and an IC50 (Protein smoothened [11]) of 0.4 nM.

`C[C@@H]1CN(c2ccc3c(Nc4ccc(Cl)c(-c5ncc(-c6ccccc6)[nH]5)c4)nccc3c2)C[C@H](C)O1` gave an AUC/dose (Mus musculus [5]) of 499 nM·h and a clearance (Mus musculus [18]) of 24.7 mL/min/kg.

In the case of `O=S1(=O)CCN(c2ccc3c(Nc4ccc(Cl)c(-c5nc(-c6ccccc6)c[nH]5)c4)nccc3c2)CC1`, the IC50 (Protein smoothened [4]) is reported as 31 nM and the IC50 (Protein smoothened [11]) is reported as 2 nM.

For `C[C@@H]1CN(c2ccc3c(Nc4ccc(Cl)c(-c5ncc(-c6ccccc6)[nH]5)c4)nccc3c2)CCO1`, the IC50 (Protein smoothened [4]) was 1.6 nM, the AUC/dose (Mus musculus [5]) was 533 nM·h and the IC50 (Protein smoothened [11]) was 0.1 nM. For the same molecule, the clearance (Mus musculus [18]) was 30.9 mL/min/kg.

Molecule `Clc1ccc(Nc2nccc3ccccc23)cc1-c1ncc(-c2ccccc2)[nH]1` has an IC50 (Protein smoothened [4]) of 157 nM and an IC50 (Protein smoothened [11]) of 19 nM.

`Clc1ccc(Nc2nccc3cc(N4CCOCC4)ccc23)cc1-c1ncc(-c2ccccc2)[nH]1` showed an IC50 (Protein smoothened [4]) of 2.6 nM, an AUC/dose (Mus musculus [5]) of 101 nM·h and an IC50 (Protein smoothened [11]) of 0.1 nM.

Molecule `Cc1ccc(NC(=O)c2ccc(N3CCOCC3)cc2)cc1-c1nc(-c2ccccc2)c[nH]1` has an IC50 (Protein smoothened [11]) of 0.2 nM.
